In patent US20250195521A1 (Revolution Medicines, Inc., priority 2020, published 2025):
Like-named read-outs stand apart in the source and are kept apart here.

What was measured:
[1] = tested on: NCI-H358 cells (K-Ras G12C); assay: CellTiter-Glo cell viability, NCI-H358; assay type: cell-based, human; conditions: K-Ras G12C, 5-day treatment, read-out: H358 Cell Viability IC50
In short: (§1)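 Compounds dispensed directly onto seeded cells; on day 5 plates equilibrated ~30 min to room temperature and luminescence read. Signal normalized to DMSO average (%) and fitted by four-parameter logistic.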

[2] = tested on: Capan-1 cells (K-Ras G12V); assay: CellTiter-Glo cell viability, Capan-1; assay type: cell-based, human; conditions: K-Ras G12V, 5-day treatment, read-out: Capan-1 Cell Viability IC50
In short: as §1

KRAS Q61H = KRAS Q61H (Homo sapiens (Human), UniProt P01116+P62937, Q61H); assay: Ras-Raf disruption/FRET/MOA assay (BRAF RBD, Cyclophilin A); assay type: biochemical
In short: (§2)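 Measured: compound-facilitated Cyclophilin A:Ras complex blocking RAF RBD binding. Conditions: 12.5 nM Ras-GMPPNP, 50 nM BRAF RBD, 25 μM CypA, 3 h plus 1.5 h detection. Output: IC50 from TR-FRET ratio.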

KRAS G12C = KRAS G12C (Homo sapiens (Human), UniProt P01116+P62937, G12C); assay: as above; assay type: biochemical; conditions: read-out: KRAS G12C FRET IC50
In short: as §2

KRAS G13C = KRAS G13C (Homo sapiens (Human), UniProt P01116+P62937, G13C); assay: as above; assay type: biochemical; conditions: read-out: KRAS G13C FRET IC50
In short: as §2

KRAS G12V = KRAS G12V (Homo sapiens (Human), UniProt P01116+P62937, G12V); assay: as above; assay type: biochemical; conditions: read-out: KRAS G12V FRET IC50
In short: as §2

KRAS G13D = KRAS G13D (Homo sapiens (Human), UniProt P01116+P62937, G13D); assay: as above; assay type: biochemical; conditions: read-out: KRAS G13D FRET data IC50
In short: as §2

NRAS G12C = NRAS G12C (Homo sapiens (Human), UniProt P01111+P62937, G12C); assay: as above; assay type: biochemical; conditions: read-out: NRAS G12C FRET data IC50
In short: (§3)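 25 μM tagless Cyclophilin A, 12.5 nM His6-Ras-GMPPNP and 50 nM GST-BRAF RBD in HEPES pH 7.3 buffer with 5 mM MgCl2, with compound (10-point 3-fold series from 30 μM final) for 3 h at 25 °C. Anti-His Eu and anti-GST APC then added for 1.5 h. IC50 from TR-FRET ratio decrease versus DMSO.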

KRAS G12D = KRAS G12D (Homo sapiens (Human), UniProt P01116+P62937, G12D); assay: as above; assay type: biochemical; conditions: read-out: KRAS G12D FRET IC50
In short: as §2

NRAS Q61K = NRAS Q61K (Homo sapiens (Human), UniProt P01111+P62937, Q61K); assay: as above; assay type: biochemical
In short: as §3

KRAS G12S = KRAS G12S (Homo sapiens (Human), UniProt P01116+P62937, G12S); assay: as above; assay type: biochemical; conditions: read-out: KRAS G12S FRET IC50
In short: as §2

KRAS WT = KRAS WT (Homo sapiens (Human), UniProt P01116+P62937); assay: as above; assay type: biochemical; conditions: read-out: KRAS WT FRET data IC50
In short: as §2

NRAS WT = NRAS WT (Homo sapiens (Human), UniProt P01111+P62937); assay: as above; assay type: biochemical
In short: as §3

[3] = tested on: K-Ras G12C (NCI-H358 cells); assay: Potency assay: pERK in NCI-H358 cells; assay type: cell-based, human; conditions: Homo sapiens; NCI-H358 cells, 4 hours; read-out: pERK EC50 (H358 KRAS G12C)
In short: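 Cells plated the day before were exposed for 4 h at 37° C, 5% CO2 to a 10-point, 3-fold DMSO dilution series (10 mM top stock), in duplicate. Phospho-ERK was read by AlphaLISA SureFire Ultra or by In-Cell Western with DRAQ5 DNA stain, and IC50 came from a 4-parameter sigmoidal fit.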

NRAS Q61R = NRAS Q61R (Homo sapiens (Human), UniProt P01111+P62937, Q61R); assay: Ras-Raf disruption/FRET/MOA assay (BRAF RBD, Cyclophilin A); assay type: biochemical
In short: as §3

[4] = biological target: K-Ras G12C(GMP-PNP) binding to BRAF RBD (Homo sapiens (Human), UniProt P01116+P62937, G12C); assay: Disruption of BRAF RBD interaction with K-Ras (FRET / MOA assay), K-Ras G12C; assay type: biochemical; conditions: read-out: KRAS G12C FRET IC50
In short: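 TR-FRET readout: after 3 h compound incubation at 25 °C, anti-His Eu and anti-GST allophycocyanin (10 and 50 nM final) added for a further 1.5 h. Dilution series was 10-point, 3-fold, top 30 μM final. Ras–cyclophilin A ternary complex formation blocks the BRAF RBD interaction; IC50 derived from reduced FRET ratio relative to DMSO.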

NCI-H358 (K-Ras G12C) = assay: CellTiter-Glo cell viability assay, NCI-H358; assay type: cell-based, human; conditions: Homo sapiens, NCI-H358, 120 h, 5-day treatment; read-out: H358 Cell Viability assay data (K-Ras G12C, IC50)
In short: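 NCI-H358 (K-Ras G12C) cells treated with compound dispensed directly into plates. CellTiter-Glo luminescence read on day 5 after ~30 min equilibration to room temperature. Signal normalised to DMSO average ×100, then fitted with a four-parameter logistic model.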

Chain of KRAS G12S (P01116 other isoform, or with tags, fused parts or gaps G12S): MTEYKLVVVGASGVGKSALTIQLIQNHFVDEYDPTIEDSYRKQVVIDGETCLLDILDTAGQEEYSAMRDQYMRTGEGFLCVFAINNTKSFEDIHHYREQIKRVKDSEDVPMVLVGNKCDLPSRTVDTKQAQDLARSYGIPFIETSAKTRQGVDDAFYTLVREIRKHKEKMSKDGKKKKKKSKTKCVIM
Chain of KRAS G12S (P62937 whole entry): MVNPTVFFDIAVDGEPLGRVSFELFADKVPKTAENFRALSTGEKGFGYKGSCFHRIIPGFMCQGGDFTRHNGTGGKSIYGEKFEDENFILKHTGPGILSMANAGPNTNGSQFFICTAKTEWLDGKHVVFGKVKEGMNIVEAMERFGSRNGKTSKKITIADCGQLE
Chain of NRAS Q61R (P01111 whole entry Q61R): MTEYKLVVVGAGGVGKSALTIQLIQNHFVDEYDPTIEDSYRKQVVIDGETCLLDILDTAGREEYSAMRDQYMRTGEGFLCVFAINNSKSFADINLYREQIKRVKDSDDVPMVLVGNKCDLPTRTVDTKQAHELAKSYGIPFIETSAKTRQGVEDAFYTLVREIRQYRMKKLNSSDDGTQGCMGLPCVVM
Chain of NRAS Q61R (P62937 whole entry): as the sequence (P62937 whole entry) above
Chain of KRAS G12C (P01116-2 other isoform, or with tags, fused parts or gaps G12C): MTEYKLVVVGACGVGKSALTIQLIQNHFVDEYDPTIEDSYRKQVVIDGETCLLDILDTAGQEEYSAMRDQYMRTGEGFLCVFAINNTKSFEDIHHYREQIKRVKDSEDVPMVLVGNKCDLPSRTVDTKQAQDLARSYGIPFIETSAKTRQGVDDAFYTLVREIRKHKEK
Chain of KRAS G12C (P62937 whole entry): as the sequence (P62937 whole entry) above
Chain of KRAS G12V (P01116 other isoform, or with tags, fused parts or gaps G12V): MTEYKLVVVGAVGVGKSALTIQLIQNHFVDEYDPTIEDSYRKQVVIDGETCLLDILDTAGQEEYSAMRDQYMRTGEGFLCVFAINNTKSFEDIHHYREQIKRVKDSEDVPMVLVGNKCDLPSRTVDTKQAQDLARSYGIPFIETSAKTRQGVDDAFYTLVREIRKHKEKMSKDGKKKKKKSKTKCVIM
Chain of KRAS G12V (P62937 whole entry): as the sequence (P62937 whole entry) above
Chain of KRAS G12D (P01116 other isoform, or with tags, fused parts or gaps G12D): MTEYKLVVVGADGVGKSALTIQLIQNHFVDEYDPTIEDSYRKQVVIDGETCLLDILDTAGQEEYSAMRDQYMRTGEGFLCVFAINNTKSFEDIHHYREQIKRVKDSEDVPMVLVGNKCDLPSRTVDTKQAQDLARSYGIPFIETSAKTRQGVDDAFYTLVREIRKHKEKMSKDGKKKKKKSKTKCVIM
Chain of KRAS G12D (P62937 whole entry): as the sequence (P62937 whole entry) above
Chain of KRAS WT (P01116 other isoform, or with tags, fused parts or gaps): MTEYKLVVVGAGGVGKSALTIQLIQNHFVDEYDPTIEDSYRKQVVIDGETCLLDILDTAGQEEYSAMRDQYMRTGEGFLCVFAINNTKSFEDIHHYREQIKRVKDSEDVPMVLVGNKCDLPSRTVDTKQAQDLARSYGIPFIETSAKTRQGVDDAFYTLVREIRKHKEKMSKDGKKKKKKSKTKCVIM
Chain of KRAS WT (P62937 whole entry): as the sequence (P62937 whole entry) above
Chain of KRAS G13D (P01116 other isoform, or with tags, fused parts or gaps G13D): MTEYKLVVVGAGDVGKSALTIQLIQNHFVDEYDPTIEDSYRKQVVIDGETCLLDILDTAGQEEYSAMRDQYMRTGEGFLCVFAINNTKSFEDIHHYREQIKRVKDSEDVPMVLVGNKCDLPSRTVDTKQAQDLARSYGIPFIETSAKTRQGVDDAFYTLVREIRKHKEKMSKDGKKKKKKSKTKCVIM
Chain of KRAS G13D (P62937 whole entry): as the sequence (P62937 whole entry) above
Chain of NRAS G12C (P01111 whole entry G12C): as the sequence (P01111 whole entry Q61R) above, with G12C, R61Q counted along it
Chain of NRAS G12C (P62937 whole entry): as the sequence (P62937 whole entry) above
Chain of NRAS Q61K (P01111 whole entry Q61K): as the sequence (P01111 whole entry Q61R) above, with R61K counted along it
Chain of NRAS Q61K (P62937 whole entry): as the sequence (P62937 whole entry) above
Chain of KRAS G13C (P01116 other isoform, or with tags, fused parts or gaps G13C): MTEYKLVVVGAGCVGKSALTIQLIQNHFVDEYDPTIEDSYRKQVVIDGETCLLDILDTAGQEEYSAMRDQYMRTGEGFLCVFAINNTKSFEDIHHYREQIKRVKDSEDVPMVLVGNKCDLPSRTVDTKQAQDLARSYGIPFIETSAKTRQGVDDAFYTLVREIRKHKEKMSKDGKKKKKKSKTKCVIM
Chain of KRAS G13C (P62937 whole entry): as the sequence (P62937 whole entry) above
Chain of NRAS WT (P01111 whole entry): as the sequence (P01111 whole entry Q61R) above, with R61Q counted along it
Chain of NRAS WT (P62937 whole entry): as the sequence (P62937 whole entry) above
Chain of KRAS Q61H (P01116 other isoform, or with tags, fused parts or gaps Q61H): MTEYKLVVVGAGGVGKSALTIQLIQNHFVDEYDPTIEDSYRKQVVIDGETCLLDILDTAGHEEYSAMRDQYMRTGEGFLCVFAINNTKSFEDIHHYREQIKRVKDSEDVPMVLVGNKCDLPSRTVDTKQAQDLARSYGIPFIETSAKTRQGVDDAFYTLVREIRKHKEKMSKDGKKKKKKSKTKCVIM
Chain of KRAS Q61H (P62937 whole entry): as the sequence (P62937 whole entry) above
Chain of K-Ras G12C(GMP-PNP) binding to BRAF RBD (P01116 other isoform, or with tags, fused parts or gaps G12C): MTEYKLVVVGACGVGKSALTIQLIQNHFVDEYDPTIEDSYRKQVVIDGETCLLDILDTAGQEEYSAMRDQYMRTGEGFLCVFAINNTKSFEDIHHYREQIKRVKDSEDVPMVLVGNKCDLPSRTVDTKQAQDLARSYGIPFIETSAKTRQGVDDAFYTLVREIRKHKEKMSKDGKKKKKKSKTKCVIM
Chain of K-Ras G12C(GMP-PNP) binding to BRAF RBD (P62937 whole entry): as the sequence (P62937 whole entry) above

SMILES | IC50 [1] | IC50 (KRAS Q61H) | IC50 (KRAS G12C) | IC50 (KRAS G13C) | IC50 (KRAS G12V) | IC50 (KRAS G13D) | IC50 (NRAS G12C) | IC50 (KRAS G12D) | IC50 (NRAS Q61K) | IC50 (KRAS G12S) | IC50 ([1]; Homo sapiens, NCI-H358, 120 h) | IC50 (KRAS WT) | IC50 (NRAS WT) | EC50 [3] | IC50 (NRAS Q61R) | IC50 [4] | IC50 (NCI-H358 (K-Ras G12C)) | IC50 [2] | IC50 ([2]; Homo sapiens, CAPAN-1, 120 h)
CCn1c(-c2cccnc2[C@H](C)OC)c2c3cc(ccc31)-c1csc(n1)C[C@H](NC(=O)N1CCC1)C(=O)N1CCC[C@H](N1)C(=O)OCC(C)(C)C2 [Compound A368] |  | 100 to 1000 nM | 100 to 1000 nM | 100 to 1000 nM | 100 to 1000 nM | 1000 to 10000 nM | 100 to 1000 nM | 1000 to 10000 nM | 100 to 1000 nM | 100 to 1000 nM | 100 to 1000 nM | 100 to 1000 nM | 100 to 1000 nM |  |  |  |  |  | 100 to 1000 nM
CCn1c(-c2cccnc2[C@H](C)OC)c2c3cc(ccc31)-c1csc(n1)C[C@H](NC(=O)[C@H](C(C)C)N(C)C(=O)[C@H]1[C@@H]3CNC[C@@H]31)C(=O)N1CCC[C@H](N1)C(=O)OCC(C)(C)C2 [Compound A448] |  |  | 1000 to 10000 nM | 1000 to 10000 nM |  | 1000 to 10000 nM | 1000 to 10000 nM | 1000 to 10000 nM | 1000 to 10000 nM | 1000 to 10000 nM |  | 1000 to 10000 nM | 1000 to 10000 nM | < 5000 nM | 1000 to 10000 nM |  |  |  | > 10000 nM
CCn1c(-c2cccnc2[C@H](C)OC)c2c3cc(ccc31)-c1csc(n1)C[C@H](NC(=O)[C@H](C(C)C)N(C)C(=O)N1C[C@@H]3CCN(C)C[C@@H]31)C(=O)N1CCC[C@H](N1)C(=O)OCC(C)(C)C2 [Compound A516] |  |  | 1000 to 10000 nM | 1000 to 10000 nM | 1000 to 10000 nM | 1000 to 10000 nM | 1000 to 10000 nM | 1000 to 10000 nM | 1000 to 10000 nM | 1000 to 10000 nM |  | 1000 to 10000 nM | 1000 to 10000 nM |  | 1000 to 10000 nM | 1000 to 10000 nM | > 10000 nM |  | 100 to 1000 nM
CCn1c(-c2cccnc2[C@H](C)OC)c2c3cc(ccc31)-c1csc(n1)C[C@H](NC(=O)[C@H](C(C)C)N(C)C(=O)N1C[C@H]3CCN(C)C[C@H]31)C(=O)N1CCC[C@H](N1)C(=O)OCC(C)(C)C2 [Compound A517] |  |  | 1000 to 10000 nM | 1000 to 10000 nM | 1000 to 10000 nM | 1000 to 10000 nM | 1000 to 10000 nM | 1000 to 10000 nM | 1000 to 10000 nM | 1000 to 10000 nM | 1000 to 10000 nM | 1000 to 10000 nM | 1000 to 10000 nM | < 5000 nM | 1000 to 10000 nM |  |  |  | 100 to 1000 nM

Further lines, with some results ahead:

IC50 [1] | IC50 (KRAS Q61H) | IC50 (KRAS G12C) | IC50 (KRAS G13C) | IC50 (KRAS G12V) | IC50 (KRAS G13D) | IC50 (NRAS G12C) | IC50 (KRAS G12D) | IC50 (NRAS Q61K) | IC50 (KRAS G12S) | IC50 ([1]; Homo sapiens, NCI-H358, 120 h) | IC50 (KRAS WT) | IC50 (NRAS WT) | EC50 [3] | IC50 (NRAS Q61R) | IC50 [4] | IC50 (NCI-H358 (K-Ras G12C)) | SMILES | IC50 [2] | IC50 ([2]; Homo sapiens, CAPAN-1, 120 h)
100 to 1000 nM | 100 to 1000 nM | 100 to 1000 nM | 100 to 1000 nM | 100 to 1000 nM | 1000 to 10000 nM | 100 to 1000 nM | 1000 to 10000 nM | 100 to 1000 nM | 100 to 1000 nM |  |  |  |  |  |  |  | CCn1c(-c2cccnc2[C@H](C)OC)c2c3cc(ccc31)-c1csc(n1)C[C@H](NC(=O)[C@H](C(C)C)N(C)C(=O)N1CC(OC)C1)C(=O)N1CCC[C@H](N1)C(=O)OCC(C)(C)C2 [Compound A354] | 100 to 1000 nM | 
 |  |  |  |  |  | 10 to 100 nM |  | 100 to 1000 nM |  | < 10 nM |  | 100 to 1000 nM | < 5000 nM | 10 to 100 nM |  |  | CCn1c(-c2cc(N3CCN(C)CC3)cnc2[C@H](C)OC)c2c3cc(ccc31)-c1csc(n1)C[C@H](NC(=O)[C@H](C(C)C)N(C)C(=O)C1OCC[C@@H]1c1ccccc1)C(=O)N1CCC[C@H](N1)C(=O)OCC(C)(C)C2 (some centres unmarked) [Compound A583] |  | < 10 nM
